Patent US6706509B2, “Oncoprotein protein kinase” (The Regents of the University of California, priority 1993, dated 2004)

Assays:
JNK = assay: Solid-state phosphorylation assay of JNK in FR3T3, CV-1 and PC12 cells; format: cell-based; details: for JNK activity, effect of A23187 or CsA treatment: FR3T3, CV-1 and PC12 cells, A23187 1 μg/ml, CsA 100 ng/ml
Experimental: We examined whether elevated intracellular Ca^++ affects JNK activation in other cells. […] Cultures of FR3T3, CV-1, PC12 and mouse thymocytes were incubated for 15 minutes in the presence of TPA (50 ng/ml, T), A23817 (1 μg/ml, A) and/or CsA (100 ng/ml), as indicated. WCE prepared from 2-4×10^5 cells for the established cell lines and 1.5×10^6 cells for primary thymocytes were incubated with GSTcJun(1-223)-GSH agarose beads. After washing, JNK activity was determined by solid-state phosphorylation assay as described above.

c-jun = assay: Northern blot of c-jun expression in Jurkat cells; format: cell-based, human
Experimental: (§1) Exponentially growing Jurkat cells (10^6/ml) grown in complete RPMI medium was pretreated with CsA for 15 minutes when applicable, then subjected to various treatments for another 40 minutes. Total cytoplasmic RNA was extracted as previously described (Angel, et al., Cell, 49:729-739, 1987). 10 μg RNA was denatured by incubating with glyoxal for 60 minutes at 55° C. and fractionated on a 1% agarose gel in phosphate buffer. The fractionated RNA was blotted to Zetabind Nylon membrane (CUNO Labs) and hybridized to ^32P-labelled cDNA probes specific for c-jun, jun-B, jun-D, c-fos, α-tubulin and IL-2.
(§2) During the first stage of T lymphocyte activation, early response genes are rapidly included (Crabtree, Science, 243:355,361, 1989; Zipfel, et al., Mol Cell Bio., 9:1041-1048, 1989). […] After fractionation of 10 μg samples on an agarose gel and transfer to nylon membrane, the level of c-jun, jun-B, jun-D, c-fos and α-tubulin expression was determined by hybridization to random primed cDNA probes.
(§3) Second, Jurkat cells were incubated with 10 μg/ml soluble anti-CD3 (OKT3), 2 μg/ml soluble anti-CD28 (9.3) or a combination of 50 ng/ml TPA and 1 μg/ml A23817 (T/A) as indicated for 40 minutes. Total cytoplasmic RNA was isolated and 10 μg samples were analyzed as described above using c-jun, jun-D and c-fos probes. […]

ERK2 = ERK2 MBP-kinase activity after anti-ERK2 immunoprecipitation, Jurkat cells; format: cell-based, human
Experimental: WCE (50 μg) of Jurkat cells treated as described above were incubated with GSTcJun(1-223)-GSH agarose beads and assayed for JNK activity using the solid-state kinase assay. The same WCE (20 μg) were immunoprecipitated with anti-ERK2 antibodies and assayed for MBP-kinase activity.
WCE (50 μg) of Jurkat cells treated as described in Panel A with various stimuli alone or their combinations were incubated with GSTcJun(1-223)-GSH agarose beads and assayed for JNK activity using solid-state kinase assay. The same samples (20 μg) were also assayed for MBP-kinase activity as described in FIG. 16B.

c-fos = assay: Northern blot of c-fos expression in Jurkat cells; format: cell-based, human
Experimental: as §1, §2, §3

[1] = test system: N-terminal c-Jun kinase (JNK); assay: Solid-phase kinase assay of N-terminal c-Jun kinase activity in Jurkat cell extracts; format: cell-based, human; details: Jurkat cells, TPA 50 ng/ml, after 30 minutes
Experimental: Cell extracts were diluted so that the final composition of the WCE buffer was 20 mM HEPES pH 7.7, 75 mM NaCl, 2.5 mM MgCl2, 0.1 mM EDTA, 0.05% Triton X-100, 0.5 mM DTT, 20 mM β-glycerolphosphate, 0.1 mM Na3VO4, 2 μg/ml leupeptin, 100 μg/ml PMSF. The extracts were mixed with 10 μl of GSH-agarose suspension (Sigma) to which 10 μg of either GST or GST-Jun fusion proteins were bound. The mixture was rotated at 4° C. for 3 hours in a microfuge tube and pelleted by centrifugation at 10,000×g for 20 sec. After 4×1 ml washes in HEPES binding buffer (20 mM HEPES pH 7.7, 50 mM NaCl, 2.5 mM MgCl2, 0.1 mM EDTA, 0.05% Triton X-100), the pelleted beads were resuspended in 30 μl of kinase buffer (20 mM HEPES pH 7.6, 20 mM MgCl2, 20 mM β-glycerolphosphate, […] p-nitrophenyl phosphate, 0.1 mM Na3VO4, 2 mM DTT) containing 20 μM ATP and 5 μCi γ-^32P-ATP. After 20 minutes at 30° C. the reaction was terminated by washing with HEPES binding buffer. Phosphorylated proteins were eluted with 30 μl of 1.5×Laemlli sample buffer and resolved on a 10% SDS polyacrylamide gel, followed by autoradiography. Quantitation of phosphate incorporated was determined by gel slicing and scintillation counting. Phosphorylated GST fusion proteins were eluted from gel slices and subjected to phosphopeptide mapping as described (Boyle, et al., supra, 1991). […]

## cyclosporin A [CsA]
JNK
  JNK activity, effect of A23187 or CsA treatment: In none of these cells was JNK activity affected
c-jun; CsA 100 ng/ml with TPA+A23187 or anti-CD3+anti-CD28, 40 minutes
  effect on synergistic induction of c-jun by both costimulatory paradigms: partially inhibited
ERK2; CsA 100 ng/ml
  ERK2 activation by anti-CD3, effect of CsA: nor was it inhibited
c-fos; CsA 100 ng/ml, 40 minutes
  effect on maximal induction of c-fos by TPA+A23187: not inhibited

## CNc1ccc2oc(C[C@H]3O[C@@]4(CC[C@H]3C)O[C@H]([C@H](C)C(=O)c3ccc[nH]3)[C@H](C)C[C@H]4C)nc2c1C(=O)O [A23187]
JNK
  JNK activity, effect of A23187 or CsA treatment: In none of these cells was JNK activity affected

## anti-CD3: anti-CD3 monoclonal antibody OKT3
c-jun; soluble anti-CD3, 40 minutes
  c-jun expression, agent alone: induction
c-fos; soluble anti-CD3, 40 minutes
  c-fos expression, agent alone: induction

## CCCCCCCCCCCCCC(=O)O[C@@H]1[C@@H](C)[C@@]2(O)[C@@H](C=C(CO)C[C@]3(O)C(=O)C(C)=C[C@@H]23)[C@H]2C(C)(C)[C@]12OC(C)=O [TPA]
JNK; CV1 and FR3T3 cells, TPA 50 ng/ml, 15 minutes
  JNK activity, TPA alone: weakly stimulated
[1]
  N-terminal kinase activity, activation: 25 fold
ERK2
  ERK2 activation, suboptimal dose of TPA by itself: partial activation of ERK2
